Reference: US7498321B2, “17β-carbothioate 17α-arylcarbonyloxyloxy androstane derivative as anti-inflammatory agents” (Glaxo Group Limited, priority 2000, dated 2009)
Where “and” joins values, the source holds several entries; their conditions need not be identical. Equal values may be shown once.

Key:
[1] = test system: human hepatocytes; assay: In vitro metabolism in human hepatocytes; type: in vitro ADME; conditions: for 17-β acid metabolite production: 37° C., 10 μM
[2] = Pharmacokinetics after intravenous administration in the anaesthetised pig; type: in vivo
Text: The clearance of these two glucocortocoids is similar is this experimental pig model.

[3] = test system: rat hepatocytes; assay: In vitro metabolism in rat hepatocytes; type: in vitro ADME
[4] = Pharmacokinetics after intravenous (IV) and oral dosing in rats; type: in vivo, male Wistar Han rats; conditions: rat; for plasma clearance (in words): in vivo
[5] = Pharmacokinetics after intra-tracheal dry powder dosing in the pig; type: in vivo; conditions: for time after dosing up to which quantifiable in plasma: anaesthetised pigs, intra-tracheal 1 mg, LLOQ 10 (Example 1) and 20 pg/mL (fluticasone propionate)
Procedure: Serial blood samples were taken for up to 8 h following dosing.

[6] = biological target: T1, glucocorticoid receptor (GR) (Homo sapiens, UniProt P04150); assay: Functional in vitro assay of glucocorticoid agonist activity (NF-κB/ELAM-sPAP reporter in A549 cells, TNF stimulated); type: cell-based; conditions: in vitro functional glucocorticoid agonist assays; versus Example 1
T1 construct: A549 cells stably transfected with a reporter gene containing the NF-κB responsive elements from the ELAM gene promoter; endogenous in cells; host or cells: A549 human lung epithelial cells (stably transfected with reporter only)
T1 sequence (P04150 1-777): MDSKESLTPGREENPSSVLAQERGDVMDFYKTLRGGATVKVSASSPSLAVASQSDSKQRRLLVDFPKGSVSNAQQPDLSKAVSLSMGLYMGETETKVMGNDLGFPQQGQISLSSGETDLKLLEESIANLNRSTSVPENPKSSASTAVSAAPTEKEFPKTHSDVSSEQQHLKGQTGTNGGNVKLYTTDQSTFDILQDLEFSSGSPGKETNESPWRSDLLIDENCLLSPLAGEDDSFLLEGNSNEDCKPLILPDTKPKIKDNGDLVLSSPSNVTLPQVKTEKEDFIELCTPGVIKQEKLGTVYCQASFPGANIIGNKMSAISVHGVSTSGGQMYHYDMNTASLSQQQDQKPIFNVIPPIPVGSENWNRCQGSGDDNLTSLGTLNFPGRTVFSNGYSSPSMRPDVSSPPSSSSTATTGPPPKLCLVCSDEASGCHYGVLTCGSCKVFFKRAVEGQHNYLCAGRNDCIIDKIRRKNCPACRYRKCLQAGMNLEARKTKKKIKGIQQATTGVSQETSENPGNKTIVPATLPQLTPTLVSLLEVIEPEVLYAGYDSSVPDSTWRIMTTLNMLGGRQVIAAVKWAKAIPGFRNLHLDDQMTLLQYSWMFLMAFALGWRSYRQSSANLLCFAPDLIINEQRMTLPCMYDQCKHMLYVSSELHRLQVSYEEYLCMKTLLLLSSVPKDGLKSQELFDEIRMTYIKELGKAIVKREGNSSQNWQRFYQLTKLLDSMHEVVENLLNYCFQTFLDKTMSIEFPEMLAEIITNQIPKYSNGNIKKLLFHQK
Procedure: Pharmacological activity was assessed in a functional in vitro assay of glucocorticoid agonist activity which is generally predictive of anti-inflammatory or anti-allergic activity in vivo.
The functional assay was based on that described by K. P. Ray et al., Biochem J. (1997), 328, 707-715. A549 cells stably transfected with a reporter gene containing the NF-κB responsive elements from the ELAM gene promoter coupled to sPAP (secreted alkaline phosphatase) were treated with test compounds at appropriate doses for 1 hour at 37° C. The cells were then stimulated with tumour necrosis factor (TNF, 10 ng/ml) for 16 hours, at which time the amount of alkaline phosphatase produced is measured by a standard colourimetric assay. Dose response curves were constructed from which EC50 values were estimated.

With `C[C@@H]1CC2C3C[C@H](F)C4=CC(=O)C=C[C@]4(C)[C@@]3(F)[C@@H](O)C[C@]2(C)[C@@]1(OC(=O)c1ccco1)C(=O)SCF` (stereo partly drawn) [Example 1, 6α, 9α-Difluoro-17α-[(2-furanylcarbonyl)oxy]-11β-hydroxy-16α-methyl-3-oxo-androsta-1,4-diene-17β-carbothioic acid S-fluoromethyl ester] the “manner of metabolism (in words)” value ([1]; human hepatocytes) was “metabolised in an identical manner to fluticasone propionate”, the “17-β acid metabolite production” value ([1]; subject 1, 0.2 million cells/mL) was 48.9 pmol/h and the “17-β acid metabolite production” value ([1]; subject 1, 0.7 million cells/mL) was 73.3 pmol/h. For the same compound, the “17-β acid metabolite production” value ([1]; subject 2, 0.2 million cells/mL) was 118 pmol/h, the “17-β acid metabolite production” value ([1]; subject 2, 0.7 million cells/mL) was 903 pmol/h and the “17-β acid metabolite production” value ([1]; subject 3, 0.7 million cells/mL) was 580 pmol/h. For the same compound, the “clearance compared with fluticasone propionate (in words)” value ([2]; IV 0.1 mg/kg) was “similar”, the “pharmacokinetic parameters compared with fluticasone propionate (in words)” value ([2]; IV mixture of the two compounds at 0.1 mg/kg) was “the same” and the “manner of metabolism (in words)” value [3] was “metabolised in an identical manner to fluticasone propionate”. The “plasma clearance (in words)” value [4] was “approaching hepatic blood flow”, the oral bioavailability ([4]; oral 0.1 mg/kg vs IV 0.1 mg/kg, 0.1 mg/kg) was < 1% and 0.9% and the “AUC (0-inf)” value ([5]; Pig 1, intra-tracheal 1 mg dry powder blend in lactose) was 0.254 ng·h/mL. For the same compound, the “AUC (0-inf)” value ([5]; Pig 2, intra-tracheal 1 mg dry powder blend in lactose) was 0.221 ng·h/mL and the “time after dosing up to which quantifiable in plasma” value [5] was “up to 2 hours”.
In the case of `CC1CC2C3CC(F)C4=CC(=O)C=CC4(C)C3(F)C(O)CC2(C)C1(OC(=O)c1ccsc1)C(=O)SCF` (stereo not drawn) [Example 4, 6α,9α-Difluoro-11β-hydroxy-16α-methyl-3-oxo-17α-[(3-thienylcarbonyl)oxy]-androsta-1,4-diene-17β-carbothioic acid S-fluoromethyl ester], the “plasma clearance (in words)” value [4] is reported as “approaching hepatic blood flow”.
With `Cc1ccoc1C(=O)OC1(C(=O)SCF)C(C)CC2C3CC(F)C4=CC(=O)C=CC4(C)C3(F)C(O)CC21C` (stereo not drawn) [Example 19, 6α,9α-Difluoro-11β-hydroxy-16α-methyl-17α-[(3-methylfuran-2-carbonyl)oxy]-3-oxo-androsta-1,4-diene-17β-carbothioic acid S-fluoromethyl ester] the “plasma clearance (in words)” value [4] was “approaching hepatic blood flow”.
In the case of `Cc1cc(C(=O)OC2(C(=O)SCF)C(C)CC3C4CC(F)C5=CC(=O)C=CC5(C)C4(F)C(O)CC32C)no1` (stereo not drawn) [Example 24, 6α,9α-Difluoro-11β-hydroxy-16α-methyl-17α-[(5-methylisoxazole-3-carbonyl)oxy]-3-oxo-androsta-1,4-diene-17β-carbothioic acid S-fluoromethyl ester], the “plasma clearance (in words)” value [4] is reported as “approaching hepatic blood flow”.
For `Cc1cc(C(=O)OC2(C(=O)SCF)C(C)CC3C4CC(F)C5=CC(=O)C=CC5(C)C4(F)C(O)CC32C)on1` (stereo not drawn) [Example 25, 6α,9α-Difluoro-11β-hydroxy-16α-methyl-17α-[(3-methylisoxazole-5-carbonyl)oxy]-3-oxo-androsta-1,4-diene-17β-carbothioic acid S-fluoromethyl ester], the “plasma clearance (in words)” value [4] was “approaching hepatic blood flow”.
For `CC1CC2C3CC(F)C4=CC(=O)C=CC4(C)C3(F)C(O)CC2(C)C1(OC(=O)c1ccon1)C(=O)SCF` (stereo not drawn) [Example 28, 6α,9α-Difluoro-11β-hydroxy-17α-[(isoxazole-3-carbonyl)oxy]-16α-methyl-3-oxo-androsta-1,4-diene-17β-carbothioic acid S-fluoromethyl ester], the “plasma clearance (in words)” value [4] was “approaching hepatic blood flow”.
In the case of `CCC(=O)O[C@]1(C(=O)SCF)[C@H](C)C[C@H]2[C@@H]3C[C@H](F)C4=CC(=O)C=C[C@]4(C)[C@@]3(F)[C@@H](O)C[C@@]21C` [Fluticasone propionate, 6α, 9α-Difluoro-17α-(1-oxopropoxy)-11β-hydroxy-16α-methyl-3-oxo-androsta-1,4-diene-17β-carbothioic acid S-fluoromethyl ester, reference compound], the “time after dosing up to which quantifiable in plasma” value [5] is reported as “up to 8 hours”.
In the case of `C[C@@H]1C[C@H]2[C@@H]3C[C@H](F)C4=CC(=O)C=C[C@]4(C)[C@@]3(F)[C@@H](O)C[C@]2(C)[C@@]1(OC(=O)c1ccco1)C(=O)O` [Metabolite (X)], the “fold less active than the parent compound” value [6] is reported as > 1000 fold.
